Here are results for 18 compounds from patent US8338565B2, “Macrocyclic compounds for inhibition of tumor necrosis factor alpha” (Ensemble Therapeutics Corporation, priority 2008, dated 2012).

Numbered stars: 1 amine (or outer) side, 2 acyl side, 3 side chain; on linkers, the order of the positions; unused ones are H or OH. Bridge positions count the residues as written; N and C are the ends. Square brackets hold non-standard residues; d marks the D form. Peptide text beside a SMILES is read from it. * marks the point of attachment. Phe(4-CF3) = N[C@@H](Cc1ccc(C(F)(F)F)cc1)C(=O)O; Phe(2,4-Cl2) = N[C@@H](Cc1ccc(Cl)cc1Cl)C(=O)O; Bip = N[C@@H](Cc1ccc(-c2ccccc2)cc1)C(=O)O; dPhe(4-NH2) = Nc1ccc(C[C@@H](N)C(=O)O)cc1; Phe(4-NH2) = Nc1ccc(C[C@H](N)C(=O)O)cc1; d(hPhe) = N[C@H](CCc1ccccc1)C(=O)O; 2Thi = N[C@@H](Cc1cccs1)C(=O)O; d2Thi = N[C@H](Cc1cccs1)C(=O)O; Suc = O=C(CCC(=O)[*:2])[*:1]; Nphe = O=C(O)CNCc1ccccc1; Ac3c = NC1(C(=O)O)CC1; Boc = CC(C)(C)OC(=O)*; GABA = NCCCC(=O)O; βAla = NCCC(=O)O

In assay [1] the target is T1, TNFα / TNFα receptor (TNFα R1/Fc) (Homo sapiens, UniProt P01375).
T1 construct: purchased R&D Systems
As to the kind of experiment: Inhibition of binding of TNFα to the TNFα receptor (plate ELISA competition). The settings on record: Table 2; read-out: Activity (IC50, inhibition of TNFα binding to TNFα R1/Fc). Put shortly:
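Plates were coated with TNFα at 15 nM. Test compound and 8.33 nM receptor-Fc (PBST, 2% DMSO) were first mixed in solution for 30 min at room temperature, then transferred to the plates for another 30 min. Competition was read by absorbance at 450 nm after HRP anti-human IgG Fc detection with TMB.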
On the technique in general: ELISA stands for enzyme-linked immunosorbent assay.

In assay [2] the test system is TNF-α (degradation of IkB in HeLa cells or A431 cells). Nature of the assay: Human cell-based assay: inhibition of TNF-α induced degradation of IkB. The settings on record: HeLa or A431 cells; for inhibition at 25 µM: 25 μM compound, read-out: Inhibition at Various Compound Concentrations, 25 μM; for inhibition at 5 µM: 5 μM compound, read-out: Inhibition at Various Compound Concentrations, 5 μM; for inhibition at 10 µM: 10 μM compound, read-out: Inhibition at Various Compound Concentrations, 10 μM. How it is done: We used a human cell-based assay to determine the TNF-α antagonistic activity of the compounds of this invention based upon the ability of the compounds to inhibit the degradation of IkB in those cells. The assay was performed on either HeLa cells or A431 cells.
On Day 1, wells of a 24-well tissue culture plate were seeded with cells that had been harvested from cultures in T-75 flasks by standard trypsin/EDTA treatment. The harvested cells were suspended in EMEM/10% FBS/P/S (100,000 HeLa cells/mL or 200,000 A431 cells/mL) and 1 mL aliquots were placed into each well. The cells were incubated overnight at 37° C. in a humidified CO2 incubator. On day 2, the cells were approximately 95% confluent.
Test and control compounds were diluted to a 1 mM solution by dilution in DMSO. The assay was run in Costar tubes. Into each tube was placed 2.5 or 5.0 μL of test compound (for testing 5 μM and 10 μM concentrations, respectively), 2.5 μL of 100× TNF-α solution (200 ng/mL TNF-α in EMEM containing 1μg/mL cycloheximide) and, for those tubes containing 2.5 μL of compound, an additional 2.5 μL of DMSO. To each tube was then added 0.5 mL of EMEM containing 1μg/mL cycloheximide. Negative control tubes contained either a) no compound, or b) no TNF-α. Tubes were then incubated for 30 minutes at room temperature.
Once incubation had begun, the media was aspirated from the cells in the 24-well plates. Sufficient EMEM/10% FBS/P/S containing 1 ug/mL cycloheximide was then added to cover the cells (approximately 3 mL) and the cells were retuned to the 37° C. humidified CO2 incubator until compound incubation was completed. The media was then aspirated from the cells, 0.2 mL of the compound solution was added and the cells re-incubated at 37° C. for 30 minutes. The plates were then placed on ice, the compound solution was aspirated from each well, and the cells washed once with 1 mL of cold PBS. Cells were then fixed with 500 μL of 3.7% formaldehyde in PBS (“fix solution”) for 20 minutes at room temperature. The fix solution was decanted and the cells permeabilized by 4× washing with 500 uL PBS/0.1% Triton X-100. After the final permeabilization wash, the cells were treated with 500 uL of Odyssey blocking buffer (OBB) and incubated at room temperature with shaking for 90 minutes.
The OBB was decanted and then to each well was then added 125 μL each of mouse anti-IkB CST#4814 (diluted 1:200 in OBB) and rabbit anti-beta-tubulin CST#2146 (diluted 1:200 in OBB). Plates were sealed with parafin and incubated overnight at room temperature with shaking.
On day 3, the antibody solution was removed from the cells and the cells were washed 5× with 0.5 mL PBST for five minutes each on a shaker. To each well was then aded 125 μL of a secondary antibody solution containing goat anti-mouse IgG-IRDye 800 and goat anti-rabbit IgG-IRDye (each diluted 1:500 in OBB+0.2% Tween 20). The plates were covered with aluminum foil and incubated for 1 hour at room temperature with shaking. The secondary antibody solution was removed and the cells washed 3× with 0.5 mL PBST for five minutes each on a shaker. Cells were then scanned by LICOR with the following settings: 700 intensity=6.0, 800 intensity=6.5; microplate2 settings with 3.0 mm offset; 169 resolution. LICOR values were fitted to an equation for a sigmoidal curve and IC50 values calculated from the fitted parameters. […] Blank cells indicate that the compound was not tested at that concentration. Certain compounds that were tested more than once and the values reflect the average of the multiple tests.

T1 sequence (P01375 77-233 limits assumed, species assumed): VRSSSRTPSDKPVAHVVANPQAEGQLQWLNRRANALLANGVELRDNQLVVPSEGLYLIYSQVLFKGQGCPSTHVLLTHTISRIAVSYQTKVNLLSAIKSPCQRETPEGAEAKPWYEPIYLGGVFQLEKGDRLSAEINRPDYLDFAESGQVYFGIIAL

For the compound `O=C1CCC(=O)N[C@H](Cc2cccs2)C(=O)N[C@@H](Cc2ccc(-c3ccccc3)cc2)C(=O)N[C@H](Cc2ccccc2)C(=O)N[C@H](C(=O)O)Cc2ccc(cc2)N1` [Compound 1] ([d2Thi][Bip][dF][Phe(4-NH2)]-OH; linker N-4 via Suc), the IC50 in assay [1] is 10 to 30 µM. The inhibition at 25 µM in assay [2] lay within 10 to 50%.
For `O=C1CCC(=O)N[C@H](CCc2ccccc2)C(=O)N[C@@H](Cc2ccc(C(F)(F)F)cc2)C(=O)N[C@H](Cc2ccccc2)C(=O)N[C@@H](C(=O)N[C@@H](Cc2ccccc2)C(=O)O)Cc2ccc(cc2)N1` [Compound 12] ([d(hPhe)][Phe(4-CF3)][dF][dPhe(4-NH2)]F-OH; linker N-4 via Suc), the IC50 in assay [1] is below 10 µM. In assay [2], the inhibition at 5 µM lay within 10 to 50% and the inhibition at 10 µM lay within 10 to 50%.
`O=C(O)CCNC(=O)[C@H]1Cc2ccc(cc2)NC(=O)CCC(=O)N[C@H](CCc2ccccc2)C(=O)N[C@@H](Cc2ccc(C(F)(F)F)cc2)C(=O)N[C@H](Cc2ccccc2)C(=O)N1` [Compound 15] ([d(hPhe)][Phe(4-CF3)][dF][dPhe(4-NH2)][βAla]-OH; linker N-4 via Suc): the IC50 in assay [1] is 10 to 30 µM. In addition, in assay [2], the inhibition at 10 µM was below 10%.
On to `O=C(N[C@H](Cc1ccccc1)C(=O)O)[C@@H]1Cc2ccc(cc2)NC(=O)[C@H](O)[C@@H](O)C(=O)N[C@H](Cc2cccs2)C(=O)N[C@@H](Cc2ccc(-c3ccccc3)cc2)C(=O)N[C@H](Cc2ccccc2)C(=O)N1` [Compound 16], for which the IC50 in assay [1] is below 10 µM. The inhibition at 10 µM in assay [2] is below 10%.
Consider `O=C1CCC(=O)N[C@H](CCc2ccccc2)C(=O)N[C@@H](Cc2ccc(C(F)(F)F)cc2)C(=O)N[C@H](Cc2ccccc2)C(=O)N[C@H](C(=O)NC2(C(=O)O)CC2)Cc2ccc(cc2)N1` [Compound 18] ([d(hPhe)][Phe(4-CF3)][dF][Phe(4-NH2)][Ac3c]-OH; linker N-4 via Suc), for which the IC50 in assay [1] was 10 to 30 µM. Also, in assay [2], the inhibition at 5 µM lay in the range of 50 to 80% and the inhibition at 10 µM was 10 to 50%.
As for `O=C(O)CNC(=O)[C@@H]1Cc2ccc(cc2)NC(=O)CCC(=O)N[C@H](Cc2cccs2)C(=O)N[C@@H](Cc2ccc(-c3ccccc3)cc2)C(=O)N[C@H](Cc2ccccc2)C(=O)N1` [Compound 19] ([d2Thi][Bip][dF][Phe(4-NH2)]G-OH; linker N-4 via Suc), the IC50 in assay [1] is 10 to 30 µM. Also, the inhibition at 25 µM in assay [2] is below 10%.
With `C[C@H](NC(=O)[C@@H]1Cc2ccc(cc2)NC(=O)CCC(=O)N[C@H](Cc2cccs2)C(=O)N[C@@H](Cc2ccc(-c3ccccc3)cc2)C(=O)N[C@H](Cc2ccccc2)C(=O)N1)C(=O)O` [Compound 20] ([d2Thi][Bip][dF][Phe(4-NH2)]A-OH; linker N-4 via Suc), the IC50 in assay [1] was below 10 µM. In addition, the inhibition at 25 µM in assay [2] was below 10%.
For `O=C(O)CCNC(=O)[C@@H]1Cc2ccc(cc2)NC(=O)CCC(=O)N[C@H](Cc2cccs2)C(=O)N[C@@H](Cc2ccc(-c3ccccc3)cc2)C(=O)N[C@H](Cc2ccccc2)C(=O)N1` [Compound 21] ([d2Thi][Bip][dF][Phe(4-NH2)][βAla]-OH; linker N-4 via Suc) the same measures were below 10 µM and below 10%.
Regarding `C[C@@H](NC(=O)[C@@H]1Cc2ccc(cc2)NC(=O)CCC(=O)N[C@H](Cc2cccs2)C(=O)N[C@@H](Cc2ccc(-c3ccccc3)cc2)C(=O)N[C@H](Cc2ccccc2)C(=O)N1)C(=O)O` [Compound 24] ([d2Thi][Bip][dF][Phe(4-NH2)][dA]-OH; linker N-4 via Suc), the IC50 in assay [1] fell in the range of 30 to 100 µM. Further, in assay [2], the inhibition at 25 µM was below 10%.
For `CC(C)[C@H](NC(=O)[C@@H]1Cc2ccc(cc2)NC(=O)CCC(=O)N[C@H](Cc2cccs2)C(=O)N[C@@H](Cc2ccc(-c3ccccc3)cc2)C(=O)N[C@H](Cc2ccccc2)C(=O)N1)C(=O)O` [Compound 26] ([d2Thi][Bip][dF][Phe(4-NH2)]V-OH; linker N-4 via Suc) the same measures were 10 to 30 µM and 10 to 50%.
For the compound `COC(=O)[C@H](CC(=O)O)NC(=O)[C@@H]1Cc2ccc(cc2)NC(=O)CCC(=O)N[C@H](Cc2cccs2)C(=O)N[C@@H](Cc2ccc(-c3ccccc3)cc2)C(=O)N[C@H](Cc2ccccc2)C(=O)N1` [Compound 29] ([d2Thi][Bip][dF][Phe(4-NH2)]D-OMe; linker N-4 via Suc), the IC50 in assay [1] is below 10 µM. The inhibition at 25 µM in assay [2] was below 10%.
For `O=C(O)CCCNC(=O)[C@@H]1Cc2ccc(cc2)NC(=O)CCC(=O)N[C@H](Cc2cccs2)C(=O)N[C@@H](Cc2ccc(-c3ccccc3)cc2)C(=O)N[C@H](Cc2ccccc2)C(=O)N1` [Compound 34] ([d2Thi][Bip][dF][Phe(4-NH2)][GABA]-OH; linker N-4 via Suc) the same measures were below 10 µM and below 10%.
The matching figures for `CC(C)(C)OC(=O)NCCCC[C@H](NC(=O)[C@@H]1Cc2ccc(cc2)NC(=O)CCC(=O)N[C@H](Cc2cccs2)C(=O)N[C@@H](Cc2ccc(-c3ccccc3)cc2)C(=O)N[C@H](Cc2ccccc2)C(=O)N1)C(=O)O` [Compound 35] ([d2Thi][Bip][dF][Phe(4-NH2)]K(Boc)-OH; linker N-4 via Suc): 10 to 30 µM and 50 to 80%.
In the case of `O=C(O)CN(Cc1ccccc1)C(=O)[C@@H]1Cc2ccc(cc2)NC(=O)CCC(=O)N[C@H](Cc2cccs2)C(=O)N[C@@H](Cc2ccc(-c3ccccc3)cc2)C(=O)N[C@H](Cc2ccccc2)C(=O)N1` [Compound 36] ([d2Thi][Bip][dF][Phe(4-NH2)][Nphe]-OH; linker N-4 via Suc), in assay [1], the IC50 was below 10 µM. Besides, in assay [2], the inhibition at 5 µM lay within 10 to 50%, the inhibition at 10 µM lay in the range of 50 to 80% and the inhibition at 25 µM was below 10%.
`O=C1CCC(=O)N[C@H](Cc2cccs2)C(=O)N[C@@H](Cc2ccc(-c3ccccc3)cc2)C(=O)N[C@H](Cc2ccccc2)C(=O)N[C@H](C(=O)NC2(C(=O)O)CC2)Cc2ccc(cc2)N1` [Compound 39] ([d2Thi][Bip][dF][Phe(4-NH2)][Ac3c]-OH; linker N-4 via Suc): the IC50 in assay [1] was below 10 µM. For the same compound, the inhibition at 10 µM in assay [2] is 10 to 50%.
For the compound `O=C1CCC(=O)N[C@@H](Cc2cccs2)C(=O)N[C@@H](Cc2ccc(-c3ccccc3)cc2)C(=O)N[C@H](Cc2ccccc2)C(=O)N[C@H](C(=O)O)Cc2ccc(cc2)N1` [Compound 43] ([2Thi][Bip][dF][Phe(4-NH2)]-OH; linker N-4 via Suc), the IC50 in assay [1] was above 100 µM. In addition, the inhibition at 25 µM in assay [2] is below 10%.
Consider `O=C1CCC(=O)N[C@H](Cc2cccs2)C(=O)N[C@@H](Cc2ccc(-c3ccccc3)cc2)C(=O)N[C@H](CCc2ccccc2)C(=O)N[C@H](C(=O)O)Cc2ccc(cc2)N1` [Compound 47] ([d2Thi][Bip][d(hPhe)][Phe(4-NH2)]-OH; linker N-4 via Suc), for which the IC50 in assay [1] was below 10 µM. Besides, the inhibition at 10 µM in assay [2] was below 10%.
`O=C1CCC(=O)N[C@H](Cc2cccs2)C(=O)N[C@@H](Cc2ccc(Cl)cc2Cl)C(=O)N[C@H](Cc2ccccc2)C(=O)N[C@H](C(=O)O)Cc2ccc(cc2)N1` [Compound 82] ([d2Thi][Phe(2,4-Cl2)][dF][Phe(4-NH2)]-OH; linker N-4 via Suc): the IC50 in assay [1] was in the range of 10 to 30 µM. In addition, in assay [2], the inhibition at 5 µM was below 10% and the inhibition at 10 µM is below 10%.
